Reference: patent EP4667464A1 (Cyrus Therapeutics Inc., priority 2023, dated 2024)
Where two headings read alike, the source gives them in different places.

Experiments:
SOS1 = target: T1, SOS1 (Homo sapiens, UniProt Q07889); test: SOS-catalyzed nucleotide exchange assay (HTRF, SOS1-mediated GTP loading of KRAS G12D); assay type: biochemical
T1 construct: HIS-SOS1cat (160 nM; Cytoskeleton, US); His (N); purchased Cytoskeleton
T1 sequence (Q07889 564-1049 limits assumed): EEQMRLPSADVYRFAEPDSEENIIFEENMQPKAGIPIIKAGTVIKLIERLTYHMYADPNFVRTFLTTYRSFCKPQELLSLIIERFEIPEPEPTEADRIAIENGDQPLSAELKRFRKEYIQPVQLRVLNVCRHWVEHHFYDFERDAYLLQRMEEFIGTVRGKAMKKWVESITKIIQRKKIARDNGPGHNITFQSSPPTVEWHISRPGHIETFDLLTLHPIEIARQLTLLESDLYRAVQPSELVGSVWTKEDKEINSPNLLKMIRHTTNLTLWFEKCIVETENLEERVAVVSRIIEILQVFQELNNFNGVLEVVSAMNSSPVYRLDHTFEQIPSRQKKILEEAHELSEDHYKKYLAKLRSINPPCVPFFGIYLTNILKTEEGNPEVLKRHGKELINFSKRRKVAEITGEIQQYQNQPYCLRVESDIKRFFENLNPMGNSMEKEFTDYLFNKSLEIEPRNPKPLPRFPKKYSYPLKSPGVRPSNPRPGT
Experimental: SOS1 activity was measured by SOS1-mediated GTP loading quantification of KRAS^G12D. GTP loaded KRAS^G12D was detected by HTRF (Homogeneous Time Resolved Fluorescence) using anti-GST terbium (Cisbio, France) as a donor and a fluorescence GTP analogue (EDA-GTP-DY-647P1, [DY-647P1 labeled 2'/3'-O-(2-aminoethyl-carbamoyl)guanosine-5'-triphosphate (Jena bioscience, Germany)]) as an acceptor.
KRAS^G12D working solution was prepared by adding equal amounts of GST-KRAS^G12D (100 nM) and anti-GST-terbium (2 nM; Cisbio, France) to the assay buffer and culturing on ice for 10 minutes. […] Control solution was prepared by adding equal volumes of EDA-GTP-DY-647P1 and the assay buffer for normalization control to exclude GEF-independent GTP loading and background signals.
10 uL of the KRAS^G12D solution was added to each well and incubated for 30 minutes at room temperature while shaking. HTRF was measured using a Thermo Varioskan (excitation 334 nm, emission 665 nm). The IC50 of each inhibitor was analyzed using Graphad Prism.

KRAS G12C::SOS1 = target: T2, KRAS G12C::SOS1 (Homo sapiens, UniProt Q07889); test: KRAS G12C::SOS1 protein-protein interaction (PPI) inhibition assay (HTRF); assay type: binding
T2 construct: purchased CISBIO 64KRASG12PEH
T2 sequence (Q07889 1-1333): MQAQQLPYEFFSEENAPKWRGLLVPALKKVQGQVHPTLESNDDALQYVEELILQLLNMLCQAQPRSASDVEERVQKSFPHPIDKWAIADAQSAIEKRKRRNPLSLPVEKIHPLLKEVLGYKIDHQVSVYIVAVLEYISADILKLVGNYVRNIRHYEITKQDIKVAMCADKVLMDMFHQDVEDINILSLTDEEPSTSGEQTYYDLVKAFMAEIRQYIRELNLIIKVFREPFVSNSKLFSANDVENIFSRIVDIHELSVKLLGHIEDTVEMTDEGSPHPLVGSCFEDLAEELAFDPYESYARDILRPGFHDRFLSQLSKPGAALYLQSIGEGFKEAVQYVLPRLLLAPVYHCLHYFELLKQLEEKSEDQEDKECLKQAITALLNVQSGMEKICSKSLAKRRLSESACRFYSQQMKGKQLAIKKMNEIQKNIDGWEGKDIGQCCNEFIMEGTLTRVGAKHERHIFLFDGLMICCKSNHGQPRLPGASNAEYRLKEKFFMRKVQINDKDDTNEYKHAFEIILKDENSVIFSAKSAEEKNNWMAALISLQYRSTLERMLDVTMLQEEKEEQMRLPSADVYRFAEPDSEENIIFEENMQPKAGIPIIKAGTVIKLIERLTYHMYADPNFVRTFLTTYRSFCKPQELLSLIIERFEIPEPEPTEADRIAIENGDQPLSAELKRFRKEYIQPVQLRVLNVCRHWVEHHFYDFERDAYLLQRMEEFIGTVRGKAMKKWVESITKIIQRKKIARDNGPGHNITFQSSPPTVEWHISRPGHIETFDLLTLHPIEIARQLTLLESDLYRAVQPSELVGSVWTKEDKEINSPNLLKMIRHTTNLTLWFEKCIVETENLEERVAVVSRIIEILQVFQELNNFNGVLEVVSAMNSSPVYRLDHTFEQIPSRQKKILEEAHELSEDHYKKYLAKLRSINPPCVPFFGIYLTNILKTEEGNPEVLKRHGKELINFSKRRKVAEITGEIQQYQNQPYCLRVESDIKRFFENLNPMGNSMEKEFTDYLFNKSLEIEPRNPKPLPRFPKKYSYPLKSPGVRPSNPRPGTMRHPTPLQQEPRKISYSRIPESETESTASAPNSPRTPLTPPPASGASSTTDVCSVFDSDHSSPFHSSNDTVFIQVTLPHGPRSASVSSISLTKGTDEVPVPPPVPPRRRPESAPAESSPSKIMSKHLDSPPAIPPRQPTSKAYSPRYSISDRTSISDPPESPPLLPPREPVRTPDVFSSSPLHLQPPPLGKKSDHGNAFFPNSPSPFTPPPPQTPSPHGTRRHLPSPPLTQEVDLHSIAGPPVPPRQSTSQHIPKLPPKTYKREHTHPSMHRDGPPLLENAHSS
Experimental: Protein-protein interaction between SOS1 and KRAS^G12c was detected using KRAS G12C/SOS1 binding kit from CISBIO (64KRASG12PEH, CISBIO, FRANCE) according to the manufacturer's assay method. Briefly, the maximum concentration of an inhibitor sample was set to be 3 µM, and the inhibitor sample was diluted 7 times by 1/3, and samples having a total of 8 concentrations were prepared. In HTRF (Homogeneous Time-Resolved Fluorescence) exclusive 96-well low-volume white plate (66PL96005, CISBIO, FRANCE), 2 µL of an inhibitor sample prepared for each concentration, 5 µL of a mixed solution of Tag1 labeled KRAS^G12c protein and GTP diluted with the dilution solution provided by the manufacturer, and 5 µL of Tag2 labeled SOS1 protein were mixed, and added with 8 µL of a diluted solution where anti-Tag1 KRAS^G12C XL665 (HTRF acceptor) labeled antibody and anti-Tag2 SOS1 Terbium cryptate (HTRF donor) labeled antibody were mixed in an equal ratio and cultured at room temperature for 2 h.

[1] = GST-KRAS G12D, HIS-SOS1cat, compound 128 pM to 10 µM; read-out: SOS-catalyzed nucleotide exchange assay
[2] = 8 concentrations from 3 µM, three replicates; read-out: KRAS G12C::SOS1 PPI

IC50 (SOS1; [1]) [nM]	IC50 (KRAS G12C::SOS1; [2]) [nM]	Compound	IC50 (SOS1; read-out: SOS-catalyzed nucleotide exchange assay; GST-KRAS G12D, HIS-SOS1cat, compound 128 pM to 10 µM) [nM]	IC50 (KRAS G12C::SOS1; read-out: KRAS G12C::SOS1 PPI; 8 concentrations from 3 µM, three replicates) [nM]
> 150	> 150	C[C@@H](NC(=O)c1cc(F)c(=O)n(-c2cncc(-c3cnnn3C)c2)c1)c1cccc(C(F)(F)F)c1F [Example 1-30, (R)-3-fluoro-N-(1-(2-fluoro-3-(trifluoromethyl)phenyl)ethyl)-5'-(1-methyl-1H-1,2,3-triazol-5-yl)-2-oxo-2H-[1,3'-bipyridine]-5-carboxamide]	–	–
50 to 150	50 to 150	[2H]C([2H])([2H])[C@@H](NC(=O)c1ccc(=O)n(-c2cncc(-c3cnnn3C)c2)n1)c1cccc(C(F)(F)F)c1F [Example 1-35, N-{(R)-1-[2-fluoro-3-(trifluoromethyl)phenyl]-ethyl-(2,2,2-trideuterio)}-1-[5-(1-methyl-1H-1,2,3-triazol-5-yl)-3-pyridyl]-6-oxo-pyridazine-3-carboxamide]	–	–
50 to 150	< 50	[2H]c1cc(C(=O)N[C@H](C)c2cccc(C(F)(F)F)c2F)nn(-c2cncc(-c3cnnn3C)c2)c1=O [Example 1-38, N-{(R)-1-[2-fluoro-3-(trifluoromethyl)phenyl]ethyl}-1-[5-(1-methyl-1H-1,2,3-triazol-5-yl)-3-pyridyl]-6-oxo-1,6-dihydropyridazine-5-deuterio-3-carboxamide]	–	–
< 50	< 50	CCc1cc(C(=O)N[C@H](C)c2cccc(C(F)(F)CO)c2F)nn(-c2cncc(-c3cnnn3C(C)C)c2)c1=O [Example 1-41, N-{(R)-1-[3-(1,1-difluoro-2-hydroxyethyl)-2-fluorophenyl]ethyl}-5-ethyl-1-[5-(1-isopropyl-1H-1,2,3-triazol-5-yl)-3-pyridyl]-6-oxo-1,6-dihydropyridazine-3-carboxamide]	–	–
> 150	> 150	C[C@@H](NC(=O)c1ccc(=O)n(-c2cncc(-c3cnnn3C)n2)c1)c1cccc(C(F)(F)F)c1F [Example 1-48, N-{(R)-1-[2-fluoro-3-(trifluoromethyl)phenyl]ethyl}-1-[6-(1-methyl-1H-1,2,3-triazol-5-yl)pyrazin-2-yl]-6-oxo-1,6-dihydropyridine-3-carboxamide]	–	–
–	–	CC(C)n1nncc1-c1cncc(-n2nc(C(=O)N[C@H](C)c3cccc(C(F)(F)F)c3F)ccc2=O)c1 [Example 1-49, N-[(1R)-1-[2-fluoro-3-(trifluoromethyl)phenyl]ethyl]-1-[5-(3-isopropyltriazol-4-yl)-3-pyridyl]-6-oxo-pyridazine-3-carboxamide]	50 to 150	< 50
< 50	50 to 150	C[C@@H](NC(=O)c1ccc(=O)n(-c2cncc(-c3cnnn3C3CC3)c2)n1)c1cccc(C(F)F)c1F [Example 1-51, N-[(1R)-1-[3-(difluoromethyl)-2-fluorophenyl]ethyl]-1-[5-(1-cyclopropyl-1H-1,2,3-triazol-5-yl)-3-pyridyl]-6-oxo-pyridazine-3-carboxamide]	–	–
< 50	< 50	C[C@@H](NC(=O)c1ccc(=O)n(-c2cncc(-c3cnnn3C3CCC3)c2)n1)c1cccc(C(F)(F)CO)c1F [Example 1-55, 1-[5-(1-cyclobutyl-1H-1,2,3-triazol-5-yl)-3-pyridyl]-N-[(1R)-1-[3-(1,1-difluoro-2-hydroxy-ethyl)-2-fluoro-phenyl]ethyl]-6-oxo-pyridazine-3-carboxamide]	–	–
< 50	< 50	C[C@@H](NC(=O)c1ccc(=O)n(-c2cncc(-c3cnnn3C3CC3)c2)n1)c1cc(N)cc(C(F)(F)F)c1 [Example 1-56, 1-[5-(1-cyclopropyl-1H-1,2,3-triazol-5-yl)-3-pyridyl]-6-oxo-N-[(1R)-1-[3-amino-5-(trifluoromethyl)phenyl]ethyl]pyridazine-3-carboxamide]	–	–
< 50	50 to 150	C[C@@H](NC(=O)c1ccc(=O)n(-c2cncc(-c3cnnn3C3COC3)c2)n1)c1cccc(C(F)(F)F)c1F [Example 1-57, 1-[5-[1-(oxetan-3-yl)triazol-5-yl]-3-pyridyl]-6-oxo-N-[(1R)-1-[2-fluoro-3-(trifluoromethyl)phenyl]ethyl]pyridazine-3-carboxamide]	–	–
< 50	50 to 150	C[C@@H](NC(=O)c1cc(C(C)(C)O)c(=O)n(-c2cncc(-c3cnnn3C)c2)n1)c1cccc(C(F)(F)F)c1F [Example 1-59, (R)-N-(1-(2-fluoro-3-(trifluoromethyl)phenyl)ethyl)-5-(2-hydroxypropane-2-yl)-1-(5-(1-methyl-1H-1,2,3-triazol-5-yl)pyridin-3-yl)-6-oxo-1,6-dihydropyridazine-3-carboxamide]	–	–

Compound	IC50 (SOS1; [1]) [nM]	IC50 (KRAS G12C::SOS1; [2]) [nM]	IC50 (SOS1; read-out: SOS-catalyzed nucleotide exchange assay; GST-KRAS G12D, HIS-SOS1cat, compound 128 pM to 10 µM) [nM]	IC50 (KRAS G12C::SOS1; read-out: KRAS G12C::SOS1 PPI; 8 concentrations from 3 µM, three replicates) [nM]
[2H][C@](C)(NC(=O)c1ccc(=O)n(-c2cncc(-c3cnnn3C)c2)n1)c1cccc(C(F)(F)F)c1F [Example 1-34, N-[(1R)-1-deuterio-1-[2-fluoro-3-(trifluoromethyl)phenyl]ethyl]-1-[5-(3-methyltriazol-4-yl)-3-pyridyl]-6-oxo-pyridazine-3-carboxamide]	50 to 150	< 50	–	–
[2H]C([2H])([2H])[C@@H](NC(=O)c1ccc(=O)n(-c2cncc(-c3cnnn3C([2H])([2H])[2H])c2)n1)c1cccc(C(F)(F)F)c1F [Example 1-36, N-{(R)-1-[2-fluoro-3-(trifluoromethyl)phenyl]-ethyl-(2,2,2-trideuterio)}-1-(5-{1-[trideuteriomethyl]-1H-1,2,3-triazol-5-yl}-3-pyridyl)-6-oxo-1,6-dihydropyridazine-3-carboxamide]	< 50	50 to 150	–	–
[2H]c1cc(C(=O)N[C@H](C)c2cccc(C(F)(F)CO)c2F)nn(-c2cncc(-c3cnnn3C3CC3)c2)c1=O [Example 1-43]	< 50	< 50	–	–
